# In ChEMBL document CHEMBL1127923, “Design and synthesis of squalene synthase inhibitors - acylic mimics of the zaragazic acids” (Bioorg Med Chem Lett, 1994):
# Molecular target: T1, Squalene synthase (Rattus norvegicus) (UniProt Q02769)
# T1 sequence (whole entry): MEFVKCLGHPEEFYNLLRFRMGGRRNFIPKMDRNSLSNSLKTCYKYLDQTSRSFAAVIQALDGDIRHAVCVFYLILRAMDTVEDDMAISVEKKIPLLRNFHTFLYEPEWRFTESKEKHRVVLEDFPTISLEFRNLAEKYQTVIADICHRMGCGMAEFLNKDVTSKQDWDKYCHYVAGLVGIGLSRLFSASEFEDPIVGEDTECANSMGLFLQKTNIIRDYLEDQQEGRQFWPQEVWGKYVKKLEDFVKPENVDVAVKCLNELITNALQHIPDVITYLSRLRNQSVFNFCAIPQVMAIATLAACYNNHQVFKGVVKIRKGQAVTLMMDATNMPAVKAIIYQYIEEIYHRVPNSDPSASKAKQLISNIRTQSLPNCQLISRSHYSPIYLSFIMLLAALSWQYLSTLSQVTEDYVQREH
# Assay: Inhibitory activity against squalene synthase in rat liver squalene synthase (RLSS) enzyme assay
row,Activity,SMILES
1,200 nM,CC(=O)O[C@H](CCOC(=O)C[C@@H](OC(=O)CCCCCCCCCCOc1ccccc1)C(=O)O[C@H](CC(=O)O)C(=O)O)[C@H](C)Cc1ccccc1
2,> 3000 nM,CC(=O)O[C@H](CCCOC(=O)C(OC(=O)CCCCCCCCCCOc1ccccc1)C(=O)O[C@H](CC(=O)O)C(=O)O)[C@H](C)Cc1ccccc1 (some centres not stated)
3,470 nM,CC[C@H](C)C[C@H](C)/C=C/C(=O)O[C@H](CC(=O)OCCC[C@@H](OC(C)=O)[C@H](C)Cc1ccccc1)C(=O)O[C@H](CC(=O)O)C(=O)O
4,0.35 nM,C=C(CCC12OC(C(=O)O)C(O)(C(=O)O)C(C(=O)O)(O1)[C@H](OC(=O)/C=C/[C@@H](C)C[C@@H](C)CC)[C@H]2O)[C@@H](OC(C)=O)[C@H](C)Cc1ccccc1 (some centres not stated)
5,200 nM,CC(=O)O[C@H](CCCOC(=O)C[C@@H](OC(=O)CCCCCCCCCCOc1ccccc1)C(=O)OC(C(=O)O)C(=O)O)[C@H](C)Cc1ccccc1
6,> 3000 nM,CC(=O)O[C@H](CCCOC(=O)C[C@@H](OC(=O)CCCCCCCCCCOc1ccccc1)C(=O)N1CCC[C@H]1C(=O)O)[C@H](C)Cc1ccccc1
7,300 nM,CC[C@H](C)C[C@H](C)/C=C/C(=O)O[C@H](CC(=O)OCCC[C@@H](OC(=O)C(F)(F)F)[C@H](C)Cc1ccccc1)C(=O)O[C@@H](C(=O)O)[C@@H](O)C(=O)O
